Calls of active or inactive are those of the source.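 How the source made its calls: active means fitted curve reaches 40% activation below the top valid tested dose, in every test run; inconclusive means test runs disagree on the call; inactive means the rest, including effects opposite to the expected direction.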
Test: endothelial E-selectin upregulation by compounds – imaging, HUVEC, cherry-picked samples, dose response (AID 977605);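 further: signal is the share of imaged cells scored positive for E-selectin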
Conditions: HUVEC E-selectin immunostaining, percent of TNF-alpha response over vehicle

Row | SMILES | activation (at 19.5 µM (top of the series)) | activation (at 21 µM (top of the series))
1 | C[C@H]1CN([C@@H](C)CO)C(=O)Cc2cc(NS(=O)(=O)c3ccc(F)cc3)ccc2O[C@@H]1CN(C)S(=O)(=O)c1ccc(Cl)cc1 | -0.047% (inactive) | 
2 | C[C@@H]1CN([C@@H](C)CO)C(=O)c2cc(NS(=O)(=O)c3cccs3)ccc2O[C@@H]1CN(C)S(C)(=O)=O | -0.005% (inactive) | 
3 | CCOC(=O)N1CCN=C1SCc1ccc(Cl)c(Cl)c1 | 5.27% (inactive) | 
4 | COc1ccc(S(=O)(=O)N(C)C[C@H]2Oc3ccc(NC(=O)c4ccncc4)cc3C(=O)N([C@H](C)CO)C[C@H]2C)cc1 |  | 4.32% (inactive)
5 | CCCCNC(=O)N1CCN(c2ccccc2OCC)CC1 | 0.12% (inactive) | 
6 | O=C(c1ccco1)N1CCN(C(=O)C2CC2)CC1 | -0.098% (inactive) | 
7 | C[C@@H]1CN([C@H](C)CO)C(=O)Cc2cc(NS(=O)(=O)c3ccccc3)ccc2O[C@@H]1CN(C)Cc1ccc(C(F)(F)F)cc1 | 0.93% (inactive) | 
8 | Cc1cc(C(=O)Nc2ccc(C)c(C)c2)n(-c2ccccc2)n1 | 0.076% (inactive) | 
9 | Cc1noc(C)c1NC(=O)N(C)C[C@H]1Oc2ccc(NC(=O)c3ccncc3)cc2C(=O)N([C@H](C)CO)C[C@@H]1C | -0.129% (inactive) | 
10 | Cc1noc(C)c1NC(=O)N(C)C[C@@H]1Oc2ccc(NC(=O)c3ccncc3)cc2C(=O)N([C@H](C)CO)C[C@@H]1C |  | 0.043% (inactive)
11 | C[C@H](CO)N1C[C@H](C)[C@H](CN(C)S(=O)(=O)c2ccccc2)Oc2c(NC(=O)Nc3ccccc3)cccc2C1=O | -0.014% (inactive) | 
12 | C[C@@H]1CN([C@H](C)CO)C(=O)Cc2cc(NC(=O)Nc3ccc(F)cc3)ccc2O[C@H]1CN(C)S(=O)(=O)c1ccc(Cl)cc1 | 0.054% (inactive) | 
13 | Cc1c(C(=O)N2CCN(S(=O)(=O)c3cc(F)ccc3F)CC2)oc2ccccc12 | -0.021% (inactive) | 
14 | Cc1noc(C)c1S(=O)(=O)Nc1ccc2c(c1)C(=O)N([C@@H](C)CO)C[C@@H](C)[C@@H](CN(C)Cc1ccc3c(c1)OCO3)O2 | -0.115% (inactive) | 
15 | COc1ccc(S(=O)(=O)N(C)C[C@@H]2Oc3ccc(NC(=O)c4ccncc4)cc3C(=O)N([C@@H](C)CO)C[C@@H]2C)cc1 | -0.183% (inactive) | 
16 | CO[C@@H]1CN(C)C(=O)c2ccc(NC(=O)c3nc4ccccc4s3)cc2OC[C@@H](C)N(Cc2cncnc2)C[C@@H]1C | -0.082% (inactive) | 
17 | Cc1noc(C)c1S(=O)(=O)Nc1ccc2c(c1)CC(=O)N([C@H](C)CO)C[C@@H](C)[C@H](CN(C)C(=O)Nc1cccc3ccccc13)O2 | -0.155% (inactive) | 
18 | C[C@H]1CN([C@@H](C)CO)C(=O)c2cc(NC(=O)Nc3ccc4c(c3)OCO4)ccc2O[C@@H]1CN(C)S(=O)(=O)c1ccc(F)cc1 | -0.105% (inactive) | 
19 | C/C(=N\NC(=O)C1CC1)c1ccc(Cl)cc1 | -0.246% (inactive) | 
20 | OC(Cc1ccccc1Br)c1ncc(-c2ccc(Cl)cc2)[nH]1 (centres undefined) | 1.34% (inactive) | 
21 | Cc1noc(C)c1S(=O)(=O)Nc1ccc2c(c1)C(=O)N([C@H](C)CO)C[C@@H](C)[C@H](CN(C)Cc1ccc3c(c1)OCO3)O2 | -0.134% (inactive) | 
22 | C[C@H](CO)N1C[C@H](C)[C@H](CN(C)Cc2ccc(C(F)(F)F)cc2)Oc2ccc(NC(=O)Cc3cn(C)c4ccccc34)cc2CC1=O | 0.156% (inactive) | 
23 | Cc1noc(C)c1NC(=O)N(C)C[C@@H]1Oc2ccc(NC(=O)Cn3cnnn3)cc2C(=O)N([C@@H](C)CO)C[C@@H]1C | -0.143% (inactive) | 

Row | SMILES | activation (at 19.5 µM (top of the series)) | activation (at 21 µM (top of the series))
24 | C[C@@H]1CN([C@@H](C)CO)C(=O)c2cccc(NC(=O)Nc3ccc(F)cc3)c2O[C@@H]1CN(C)Cc1ccncc1 | -0.005% (inactive) | 
25 | C[C@@H]1CN([C@H](C)CO)C(=O)c2cc(NS(=O)(=O)c3cn(C)cn3)ccc2O[C@H]1CN(C)Cc1ccncc1 |  | -0.069% (inactive)
26 | CCN(CC)CCN(C(=O)Cn1nnc(-c2ccc(C)o2)n1)C(C(=O)NC(C)(C)C)c1cccs1 (centres undefined) | -0.044% (inactive) | 
27 | COc1ccc(NC(=O)N(C)C[C@H]2Oc3ccc(N(C)C)cc3CC(=O)N([C@H](C)CO)C[C@@H]2C)cc1 | -0.19% (inactive) | 
28 | C[C@@H]1CN([C@@H](C)CO)C(=O)c2cc(NC(=O)Nc3ccc(C(F)(F)F)cc3)ccc2O[C@@H]1CN(C)Cc1ccc(Oc2ccccc2)cc1 | -0.275% (inactive) | 
29 | Cc1ccc(S(=O)(=O)N(C)C[C@@H]2Oc3c(NS(=O)(=O)c4ccc(Cl)cc4)cccc3C(=O)N([C@@H](C)CO)C[C@H]2C)cc1 | -0.172% (inactive) | 
30 | CC(C)NC(=O)N(C)C[C@H]1Oc2c(NC(=O)CCCCCC(=O)Nc3ccccc3N)cccc2C(=O)N([C@@H](C)CO)C[C@H]1C |  | -0.093% (inactive)
31 | COc1ccc(NC(=O)N(C)C[C@H]2Oc3ccc(NC(=O)c4ccncc4)cc3CC(=O)N([C@H](C)CO)C[C@H]2C)cc1 | -0.01% (inactive) | 
32 | COc1ccc(CN(C)C[C@H]2Oc3ccc(NC(=O)CCCN(C)C)cc3C(=O)N([C@H](C)CO)C[C@H]2C)cc1 |  | -0.188% (inactive)
33 | CC(C)NC(=O)Nc1cccc2c1O[C@@H](CN(C)Cc1ccc(Cl)c(Cl)c1)[C@@H](C)CN([C@H](C)CO)C2=O |  | 7.29% (inactive)
34 | Cc1noc(C)c1NC(=O)N(C)C[C@@H]1Oc2ccc(NS(=O)(=O)c3cccs3)cc2CC(=O)N([C@H](C)CO)C[C@@H]1C |  | 10.8% (inactive)
35 | C[C@@H]1CN([C@H](C)CO)C(=O)c2cc(NC(=O)Cn3cnnn3)ccc2O[C@H]1CN(C)S(=O)(=O)c1ccccc1 | 0% (inactive) | 
36 | COc1cc(CC2C(=O)Nc3ccccc32)cc(C)c1O (centres undefined) | 36.1% (inactive) | 
37 | CCOc1ccccc1NC(=O)N1CCC(NC(=O)C2CCCCC2)CC1 | -0.152% (inactive) | 
38 | C[C@H](CO)N1C[C@H](C)[C@H](CN(C)Cc2ccc(Oc3ccccc3)cc2)Oc2ccc(NC(=O)CCCCCC(=O)Nc3ccccc3N)cc2CC1=O | 0.312% (inactive) | 
39 | C[C@@H]1CN([C@H](C)CO)C(=O)Cc2cc(NC(=O)Nc3ccc(F)cc3)ccc2O[C@@H]1CN(C)S(=O)(=O)c1ccc(Cl)cc1 |  | 0.732% (inactive)
40 | Nc1nnc(SCc2nnc(-c3ccccc3)o2)s1 | 0.69% (inactive) | 
41 | CC1CN(S(=O)(=O)c2ccc(F)cc2)C(C)N1C(=O)N1CCOCC1 (centres undefined) | -0.215% (inactive) | 
42 | C[C@H](CO)N1C[C@H](C)[C@@H](CN(C)S(=O)(=O)c2cccs2)Oc2ccc(NC(=O)CCN3CCOCC3)cc2C1=O |  | -0.167% (inactive)
43 | Cc1cc(NC(=O)CCC(=O)N(c2ccccc2)C(C(=O)NC2CCCC2)c2ccc(F)cc2)no1 (centres undefined) | 0.168% (inactive) | 
44 | CC(=O)c1ccc(N2CCN(c3ccnc4cc(Cl)ccc34)CC2)cc1 | 1.69% (inactive) | 
45 | C[C@@H]1CN([C@@H](C)CO)C(=O)c2cc(NC(=O)Nc3ccc4c(c3)OCO4)ccc2O[C@H]1CN(C)Cc1ccc(-c2ccccc2)cc1 |  | 2.77% (inactive)
46 | C[C@@H]1CN([C@H](C)CO)C(=O)c2cc(NC(=O)CCN3CCOCC3)ccc2O[C@@H]1CN(C)Cc1ccncc1 | -0.14% (inactive) | 

Row | SMILES | activation (at 19.5 µM (top of the series)) | activation (at 21 µM (top of the series))
47 | C[C@@H]1CN([C@H](C)CO)C(=O)c2cccc(NS(=O)(=O)c3cn(C)cn3)c2O[C@H]1CN(C)C(=O)Nc1ccc(F)cc1 |  | 6% (inactive)
48 | C[C@H](CO)N1C[C@H](C)[C@@H](CN(C)C)Oc2c(NC(=O)CCCCCC(=O)Nc3ccccc3N)cccc2C1=O |  | -0.097% (inactive)
49 | C[C@H]1CN([C@@H](C)CO)C(=O)c2cc(NC(=O)CCN3CCOCC3)ccc2O[C@H]1CN(C)S(=O)(=O)c1ccc(Cl)cc1 | -0.234% (inactive) | 
50 | C[C@@H]1CN([C@H](C)CO)C(=O)c2cccc(NC(=O)CCCCCC(=O)Nc3ccccc3N)c2O[C@@H]1CN(C)S(=O)(=O)c1cn(C)cn1 | -0.195% (inactive) | 
51 | Cc1ccc(S(=O)(=O)N2CCN(C(=O)Cc3sc(C)nc3-c3ccc(F)cc3)CC2)c(C)c1 | -0.025% (inactive) | 
52 | Cc1cccc(NS(=O)(=O)c2csc(C(N)=O)c2)c1C | 0.111% (inactive) | 
53 | C[C@H](CO)N1C[C@H](C)[C@@H](CN(C)Cc2ccc(Oc3ccccc3)cc2)Oc2ccc(NC(=O)Nc3ccc(C(F)(F)F)cc3)cc2CC1=O | -0.23% (inactive) | 
54 | C[C@@H]1CN([C@@H](C)CO)C(=O)c2cccc(NC(=O)c3ccncc3)c2O[C@H]1CN(C)C(=O)Nc1cccc2ccccc12 |  | 1.89% (inactive)
55 | C[C@@H]1CN([C@@H](C)CO)C(=O)Cc2cc(NC(=O)CCCCCC(=O)Nc3ccccc3N)ccc2O[C@@H]1CN(C)C(=O)Nc1ccc2c(c1)OCO2 | 0.042% (inactive) | 
56 | CCCCCCOc1ccc(C(CC(N)=O)C(=O)O)cc1 (centres undefined) | -0.269% (inactive) | 
57 | C[C@@H]1CN([C@H](C)CO)C(=O)c2cccc(NS(C)(=O)=O)c2O[C@@H]1CN(C)Cc1ccc(Oc2ccccc2)cc1 |  | -0.185% (inactive)
58 | CCOC(=O)c1sc(NC(=O)CN2C(=O)C3CC=CCC3C2=O)nc1C (centres undefined) | 0.503% (inactive) | 
59 | C[C@@H]1CN([C@H](C)CO)C(=O)c2cccc(NS(=O)(=O)c3cccs3)c2O[C@H]1CN(C)Cc1ccc(Cl)c(Cl)c1 | -0.024% (inactive) | 
60 | CC(C)NC(=O)N(C)C[C@@H]1Oc2ccc(NC(=O)CCN3CCOCC3)cc2C(=O)N([C@H](C)CO)C[C@H]1C | -0.003% (inactive) | 
61 | C[C@H]1CN([C@@H](C)CO)C(=O)c2cccc(NS(C)(=O)=O)c2O[C@@H]1CN(C)Cc1ccncc1 | -0.178% (inactive) | 
62 | COC(=O)C[C@H]1CC[C@H]2[C@@H](COc3ccc(NC(=O)C4CC4)cc3C(=O)N2C)O1 | 3.57% (inactive) | 
63 | C[C@@H]1CN([C@H](C)CO)C(=O)c2cccc(NS(C)(=O)=O)c2O[C@H]1CN(C)Cc1ccncc1 | 1.77% (inactive) | 
64 | CCc1nc(=O)c(-c2ccccc2)c(C)n1-c1ccccc1 | -0.02% (inactive) | 
65 | C=CCn1c(=N)n(CC(=O)c2ccc(Br)s2)c2ccccc21 | 1.81% (inactive) | 
66 | C[C@@H]1CN([C@@H](C)CO)C(=O)c2cc(N(C)C)ccc2O[C@@H]1CN(C)C(=O)Nc1cccc2ccccc12 | -0.224% (inactive) | 
67 | CC1CCC(NC(=O)CCN2C(=O)C3C4C=CC(C4)C3C2=O)CC1 (centres undefined) | 0.46% (inactive) | 
68 | COc1ccc(CN(C)C[C@@H]2Oc3c(NC(=O)Nc4ccc(F)cc4)cccc3C(=O)N([C@@H](C)CO)C[C@H]2C)cc1 | 8.09% (inactive) | 
69 | C[C@H]1CN([C@@H](C)CO)C(=O)c2cccc(NC(=O)C3CCOCC3)c2O[C@H]1CN(C)Cc1ccc(Oc2ccccc2)cc1 | 0.01% (inactive) | 

— PubChem BioAssay AID977605 (Broad Institute, 2014)
